This is an account of results in patent US20240189385A1, “KEAP1/NRF2 PROTEIN-LIKE POLYMERS” (Northwestern University, priority 2021, published 2024).

Ends that are not written are not given here.

For this assay, the system named is Antioxidant Response Element (ARE), Nrf2 antioxidant pathway. In words: Antioxidant Response Element (ARE) luciferase reporter assay. Type of assay: cell-based. To be noted: 0 μM to 50 μM with respect to peptide; 24 hours; FIGS. 38A, 38B. As to the method: The Antioxidant Response Element (ARE) Luciferase Reporter HepG2 Cell line was used to probe Nrf2 antioxidant pathway activation. ARE-HepG2 cells were cultured in growth media (BPS bioscience) according to manufacturer's recommendations. […] PLPs and peptides were tested at concentrations ranging from 0 μM to 50 μM with respect to peptide along with controls (untreated and tBHQ positive control at 100 μM) in triplicate. Cells were incubated for 24 hours post-treatment. ONE-step luciferase assay reagent was added at 100 μL/well, followed by rocking at room temperature for 15 min. Luminescence was assessed using a Biotek SynergyNeo2 plate reader. Background luminescence of cell free controls wells was subtracted from test wells. ARE activation was reported as luminescence relative to the average of the untreated controls wells.
Background: Reporter assays use an easily measured gene product as a stand-in for the process of interest.
On to `CC(C)C[C@H](NC(=O)[C@H](Cc1ccccc1)NC(=O)[C@H](CCC(=O)O)NC(=O)CNC(=O)[C@@H](NC(=O)[C@H](CCC(=O)O)NC(=O)[C@@H]1CCCN1C(=O)[C@H](CC(=O)O)NC(=O)[C@@H](N)CC(C)C)[C@@H](C)O)C(=O)N[C@@H](CCCNC(=N)N)C(=O)N[C@@H](CCCNC(=N)N)C(=O)N[C@@H](CCCNC(=N)N)C(=O)N[C@@H](CCCNC(=N)N)C(N)=O` [SEQ ID NO: 72], for which the ARE activation entry is “did not activate ARE”. On to “ScrambleR PLP: scrambleRRRR polynorbornene dicarboxyimide-based brush polymer comprising SEQ ID NO: 146 (DELEPLTGFRRRR) peptide monomer, Example 14 (also: part of polynorbornene dicarboxyimide-based brush polymer) [reference compound]”, for which the ARE activation result was “did not activate ARE”.

As for “Full Scramble PLP: full scramble polynorbornene dicarboxyimide-based brush polymer comprising SEQ ID NO: 143 (DERLERPLTRGFR) peptide monomer, Example 13 (also: part of polynorbornene dicarboxyimide-based brush polymer) [reference compound]”, the ARE activation entry is reported as “did not activate ARE”.
